Substitutions are numbered along the chain they refer to.

One assay has as its target T1, IDH2 R172K (Homo sapiens, UniProt P48735, R172K).
T1 sequence (P48735 40-452 R172K): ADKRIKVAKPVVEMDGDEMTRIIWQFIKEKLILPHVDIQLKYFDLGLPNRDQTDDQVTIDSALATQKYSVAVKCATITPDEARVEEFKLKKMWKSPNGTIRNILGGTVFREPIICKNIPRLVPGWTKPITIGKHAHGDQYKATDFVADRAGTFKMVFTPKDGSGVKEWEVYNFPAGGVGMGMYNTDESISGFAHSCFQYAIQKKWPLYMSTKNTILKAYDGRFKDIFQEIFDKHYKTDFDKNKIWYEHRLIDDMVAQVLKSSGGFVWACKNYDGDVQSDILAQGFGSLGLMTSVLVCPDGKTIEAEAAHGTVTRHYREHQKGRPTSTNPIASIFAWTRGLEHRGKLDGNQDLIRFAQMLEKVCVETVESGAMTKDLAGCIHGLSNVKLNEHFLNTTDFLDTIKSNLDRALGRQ
Briefly: IDH2 R172K enzymatic assay (NADPH cofactor depletion, diaphorase/resazurin readout). The class given is biochemical. To be noted: read-out: Enz R172K. As for the experimental part: Compounds are assayed for IDH2 R172K inhibitory activity through a cofactor depletion assay. […] The reaction is terminated by the addition of a second enzyme, diaphorase, and a corresponding substrate, resazurin. Diaphorase reduces resazurin to the highly fluorescent resorufin with the concomitant oxidation of NADPH to NADP, both halting the IDH2 reaction by depleting the available cofactor pool and facilitating quantitation of the amount of cofactor remaining after a specific time period through quantitative production of an easily detected fluorophore.
The test compound is then incubated for one hour at room temperature with the enzyme; before starting the IDH2 reaction with the addition of 10 μl of substrate mix containing 50 μM NADPH and 6.3 mM α-KG in the buffer described above. After a further one hour of incubation at room temperature, the reaction is halted and the remaining NADPH measured through conversion of resazurin to resorufin by the addition of 25 μl Stop Mix (36 μg/ml diaphorase enzyme and 60 μM resazurin; in buffer).

For a further assay, the target named is T2, IDH2 R140Q (Homo sapiens, UniProt P48735, R140Q).
T2 sequence (P48735 40-452 R140Q): T1 sequence (P48735 40-452 R172K) with R101Q, K133R
As to the kind of experiment: IDH2 R140Q enzymatic assay (cofactor depletion, similar format). The class given is biochemical. To be noted: read-out: Enz R140Q.

For assay [1], the system named is U87MG pLVX-IDH2 R140Q-neo cells. Briefly: U87MG pLVX-IDH2 R140Q-neo cell based assay, 2-HG in media by LC-MS at 48 hours. To be noted: for IC50: Homo sapiens, U-87 MG. The gist of the method:
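2-HG secreted into the medium was measured by LC-MS after 48 h of compound treatment (0.2% DMSO final) of U87MG pLVX-IDH2 R140Q-neo cells in DMEM/10% FBS. The same wells were assayed at 72 h by CellTiter-Glo luminescence for effects on growth.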

For the compound `Cc1ccccc1-c1nc(Nc2ccccc2)nc(NC(C)C)n1` [Compound 123], the values for the IC50 (on IDH2 R172K; on IDH2 R140Q; in assay [1]) were 100 to 1000 nM, < 100 nM and 100 to 1000 nM, respectively.
Turning to `FC(F)(F)CNc1nc(Nc2ccccc2)nc(-c2ccccc2)n1` [Compound 126], the IC50 on IDH2 R172K was 100 to 1000 nM; on IDH2 R140Q, < 100 nM; in assay [1], < 100 nM.
On to `CC(C)Nc1nc(Nc2ccccc2)nc(-c2cccc(C#N)c2)n1` [Compound 128], for which the IC50 on IDH2 R172K was in the range of 1000 to 10000 nM; at IDH2 R140Q it was 100 to 1000 nM; in assay [1], 1000 to 10000 nM.
Consider `CC(C)Nc1nc(Nc2ccncc2)nc(-c2ccccc2)n1` [Compound 129, N^2-isopropyl-6-phenyl-N^4-(pyridin-4-yl)-1,3,5-triazine-2,4-diamine], for which the IC50 at IDH2 R172K is 1000 to 10000 nM; at IDH2 R140Q, < 100 nM; in assay [1], 100 to 1000 nM.
In the case of `CC(C)Nc1nc(Nc2cccc(C#N)c2)nc(-c2ccccc2)n1` [Compound 130], the values for the IC50 (at IDH2 R172K; on IDH2 R140Q; in assay [1]) were 100 to 1000 nM, < 100 nM and < 100 nM, respectively.
Consider `CC(C)Nc1nc(Nc2ccc(F)cc2)nc(-c2ccccc2)n1` [Compound 132], for which the IC50 on IDH2 R172K is 100 to 1000 nM; on IDH2 R140Q, < 100 nM; in assay [1], < 100 nM.
As to `c1ccc(Nc2nc(NCc3ccccn3)nc(-c3ccccc3)n2)cc1` [Compound 135], the IC50 at IDH2 R172K is > 10000 nM; at IDH2 R140Q, 100 to 1000 nM; in assay [1] it was 1000 to 10000 nM.
As for `CC(C)Nc1nc(Nc2ccccc2)nc(-c2ccccc2C#N)n1` [Compound 139], the IC50 was 1000 to 10000 nM on IDH2 R172K, < 100 nM at IDH2 R140Q and 100 to 1000 nM in assay [1].
Take `CC(C)Nc1nc(Nc2ccc(F)cc2F)nc(-c2ccccc2)n1` [Compound 140]: the IC50 on IDH2 R172K was 1000 to 10000 nM; on IDH2 R140Q, < 100 nM; in assay [1], 100 to 1000 nM.
In the same order, the values of `CC(C)Nc1nc(Nc2ccc(C#N)cc2)nc(-c2ccccc2)n1` [Compound 141] are 100 to 1000 nM, < 100 nM and 100 to 1000 nM.
For the compound `CC(C)Nc1nc(Nc2ccc(Cl)cc2)nc(-c2ccccc2)n1` [Compound 143], the IC50 at IDH2 R172K is 100 to 1000 nM; at IDH2 R140Q it was < 100 nM; in assay [1], 100 to 1000 nM.
For `Cc1ccccc1Nc1nc(NC(C)C)nc(-c2ccccc2)n1` [Compound 147], the IC50 at IDH2 R172K was in the range of 1000 to 10000 nM; on IDH2 R140Q, 100 to 1000 nM; in assay [1] it was 100 to 1000 nM.
Consider `CC(C)Nc1nc(Nc2ccccc2)nc(-c2ccn[nH]2)n1` [Compound 148], for which the results for the IC50 (at IDH2 R172K; at IDH2 R140Q; in assay [1]) were 1000 to 10000 nM, 100 to 1000 nM and 100 to 1000 nM, respectively.
On to `CC(C)Nc1nc(Nc2cccc(Cl)c2)nc(-c2ccccc2)n1` [Compound 149], for which the IC50 (at IDH2 R172K; at IDH2 R140Q; in assay [1]) was < 100 nM in each case.
Consider `CC(C)Nc1nc(Nc2cccc(CO)c2)nc(-c2ccccc2)n1` [Compound 150], for which the IC50 is 1000 to 10000 nM at IDH2 R172K, 100 to 1000 nM at IDH2 R140Q and 100 to 1000 nM in assay [1].
`CC(C)Nc1nc(Nc2ccccc2)nc(-c2cccc(S(C)(=O)=O)c2)n1` [Compound 151]: the IC50 (at IDH2 R172K; at IDH2 R140Q; in assay [1]) was 100 to 1000 nM throughout.
Take `CC(C)Nc1nc(Nc2cccnc2)nc(-c2ccccc2)n1` [Compound 154]: the values for the IC50 (on IDH2 R172K; at IDH2 R140Q; in assay [1]) were 1000 to 10000 nM, < 100 nM and 100 to 1000 nM, respectively.
Take `CC(C)Nc1nc(Nc2ccccn2)nc(-c2ccccc2)n1` [Compound 155]: the results for the IC50 at IDH2 R172K and on IDH2 R140Q were > 10000 nM and 100 to 1000 nM, respectively. For the same compound, the “Cell R140Q” value in assay [1] is “No Fit”.
On to `CC(C)Nc1nc(Nc2ccccc2)nc(-c2ccncc2)n1` [Compound 156], for which the IC50 fell in the range of 1000 to 10000 nM at IDH2 R172K, 100 to 1000 nM on IDH2 R140Q and 100 to 1000 nM in assay [1].
As for `CC(C)Nc1nc(Nc2ccccc2)nc(-c2cccc(Cl)c2)n1` [Compound 158], the IC50 at IDH2 R172K is 100 to 1000 nM; on IDH2 R140Q it was < 100 nM; in assay [1], 100 to 1000 nM.
Consider `COc1ccc(Nc2nc(NC(C)C)nc(-c3ccccc3)n2)cc1` [Compound 159], for which the IC50 on IDH2 R172K was 1000 to 10000 nM; at IDH2 R140Q, 100 to 1000 nM; in assay [1], 100 to 1000 nM.
As for `CC(C)OC(=O)Nc1nc(Nc2ccccc2)nc(-c2ccccc2)n1` [Compound 160, isopropyl 4-phenyl-6-(phenylamino)-1,3,5-triazin-2-ylcarbamate], the IC50 is 100 to 1000 nM at IDH2 R172K, < 100 nM on IDH2 R140Q and 100 to 1000 nM in assay [1].
As for `CC(C)Nc1nc(Nc2ccccc2Cl)nc(-c2ccccc2)n1` [Compound 162], the figures for the IC50 (on IDH2 R172K; on IDH2 R140Q; in assay [1]) were 1000 to 10000 nM, 100 to 1000 nM and 1000 to 10000 nM, respectively.
Regarding `CC(C)C(=O)Nc1nc(Nc2ccccc2)nc(-c2ccccc2)n1` [Compound 167], the IC50 on IDH2 R172K is 100 to 1000 nM; at IDH2 R140Q it was < 100 nM; in assay [1] it was < 100 nM.
`c1ccc(Nc2nc(NC3CCOCC3)nc(-c3ccccc3)n2)cc1` [Compound 168]: the IC50 was 100 to 1000 nM on IDH2 R172K, < 100 nM at IDH2 R140Q and < 100 nM in assay [1].
In the case of `CC(C)Nc1nc(Nc2ccon2)nc(-c2ccccc2)n1` [Compound 169], the IC50 is 100 to 1000 nM at IDH2 R172K, < 100 nM at IDH2 R140Q and 100 to 1000 nM in assay [1].
Take `CC(C)Nc1nc(NC(=O)Cc2ccccc2)nc(-c2ccccc2)n1` [Compound 170]: the IC50 on IDH2 R172K lay within 100 to 1000 nM; on IDH2 R140Q it was 100 to 1000 nM; in assay [1] it was 1000 to 10000 nM.
In the case of `O=C(Cc1ccccc1)Nc1nc(Nc2ccccc2)nc(-c2ccccc2)n1` [Compound 172], the IC50 on IDH2 R172K is 100 to 1000 nM; at IDH2 R140Q, < 100 nM; in assay [1], 100 to 1000 nM.
On to `Clc1cccc(Nc2nc(NC3CCOCC3)nc(-c3ccccc3)n2)c1` [Compound 173], for which the IC50 (at IDH2 R172K; on IDH2 R140Q; in assay [1]) was < 100 nM each time.
Take `c1ccc(Nc2nc(NC3CCOC3)nc(-c3ccccc3)n2)cc1` (stereo not drawn) [Compound 174, N^2,6-diphenyl-N^4-(tetrahydrofuran-3-yl)-1,3,5-triazine-2,4-diamine]: the results for the IC50 (at IDH2 R172K; at IDH2 R140Q; in assay [1]) were 100 to 1000 nM, < 100 nM and < 100 nM, respectively.
Turning to `c1ccc(Nc2nc(NC3COC3)nc(-c3ccccc3)n2)cc1` [Compound 175, N^2-(oxetan-3-yl)-N^4,6-diphenyl-1,3,5-triazine-2,4-diamine], the IC50 at IDH2 R172K was 100 to 1000 nM; on IDH2 R140Q, < 100 nM; in assay [1], < 100 nM.
Consider `CC1(Nc2nc(Nc3ccccc3)nc(-c3ccccc3)n2)COC1` [Compound 176, N^2-(3-methyloxetan-3-yl)-N^4,6-diphenyl-1,3,5-triazine-2,4-diamine], for which the IC50 at IDH2 R172K is 100 to 1000 nM; at IDH2 R140Q, < 100 nM; in assay [1], 100 to 1000 nM.
Regarding `CC(C)Nc1nc(Nc2cccc(S(=O)(=O)N(C)C)c2)nc(-c2ccccc2)n1` [Compound 177, 3-(4-(isopropylamino)-6-phenyl-1,3,5-triazin-2-ylamino)-N,N-dimethylbenzenesulfonamide], the IC50 at IDH2 R172K is 100 to 1000 nM; at IDH2 R140Q, < 100 nM; in assay [1], < 100 nM.
For the compound `CC(C)Nc1nc(Nc2cccc(F)c2)nc(-c2ccccc2)n1` [Compound 178, N-(3-Fluoro-phenyl)-N′-isopropyl-6-phenyl-[1,3,5]triazine-2,4-diamine], the IC50 (at IDH2 R172K; on IDH2 R140Q; in assay [1]) was < 100 nM throughout.
As to `CC(C)COC(=O)Nc1nc(Nc2ccccc2)nc(-c2ccccc2)n1` [Compound 179, Isobutyl 4-phenyl-6-(phenyl-amino)-1,3,5-triazin-2-ylcarbamate], the IC50 (at IDH2 R172K; at IDH2 R140Q; in assay [1]) was < 100 nM in each case.
